Patent US20220112187A1, “PYRAZOLOPYRIDINE AMINE COMPOUNDS FOR THE TREATMENT OF AUTOIMMUNE DISEASE” (Hoffmann-La Roche Inc., priority 2018, published 2022)

Target: T1, human TLR7 (Homo sapiens, UniProt Q9NYK1)
T1 sequence (Q9NYK1 27-1049): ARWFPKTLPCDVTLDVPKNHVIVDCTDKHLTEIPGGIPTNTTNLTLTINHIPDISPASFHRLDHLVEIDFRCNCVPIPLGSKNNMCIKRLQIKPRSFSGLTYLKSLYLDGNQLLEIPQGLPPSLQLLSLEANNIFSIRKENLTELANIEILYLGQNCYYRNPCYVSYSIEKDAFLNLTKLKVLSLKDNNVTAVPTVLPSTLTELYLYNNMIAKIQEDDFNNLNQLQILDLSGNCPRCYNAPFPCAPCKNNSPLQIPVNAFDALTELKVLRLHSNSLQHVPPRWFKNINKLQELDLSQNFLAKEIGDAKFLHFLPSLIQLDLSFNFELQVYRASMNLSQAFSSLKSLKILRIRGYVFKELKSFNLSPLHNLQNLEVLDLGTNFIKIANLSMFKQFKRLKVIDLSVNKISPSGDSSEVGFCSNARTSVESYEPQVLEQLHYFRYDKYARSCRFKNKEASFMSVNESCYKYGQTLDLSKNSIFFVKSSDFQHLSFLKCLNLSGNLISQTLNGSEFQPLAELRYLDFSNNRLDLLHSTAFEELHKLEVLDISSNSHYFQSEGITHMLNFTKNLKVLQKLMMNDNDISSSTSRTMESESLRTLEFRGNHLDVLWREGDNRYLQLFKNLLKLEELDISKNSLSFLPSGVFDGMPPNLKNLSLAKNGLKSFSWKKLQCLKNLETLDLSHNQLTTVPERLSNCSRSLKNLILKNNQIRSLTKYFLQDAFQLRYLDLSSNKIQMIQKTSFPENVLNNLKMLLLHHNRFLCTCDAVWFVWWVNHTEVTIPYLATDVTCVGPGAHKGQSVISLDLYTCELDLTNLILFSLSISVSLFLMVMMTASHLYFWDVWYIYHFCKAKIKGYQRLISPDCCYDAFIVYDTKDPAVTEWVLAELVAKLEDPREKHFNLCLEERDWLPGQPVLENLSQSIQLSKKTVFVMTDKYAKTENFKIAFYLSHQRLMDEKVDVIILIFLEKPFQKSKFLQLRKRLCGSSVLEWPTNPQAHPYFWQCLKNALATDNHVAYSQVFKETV
Assay: HEK293-Blue-hTLR-7 cells assay (SEAP reporter, R848 stimulation)
Type: cell-based
Details: HEK293-Blue-hTLR7 cells, R848 ligand, 20 hrs incubation
Summary of the method: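 Antagonist mode: HEK293-Blue-hTLR7 cells (250,000–450,000 cells/mL) incubated 20 h at 37° C. with serially diluted compound (1% DMSO) and R848 (20 uM stock). NF-κB/AP-1-driven SEAP in supernatant read with QUANTI-Blue after 2 h at 37° C., absorbance 620–655 nm.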

IC50: 160 nM
SMILES: C[C@@H]1CN(c2ccc(C#N)n3nccc23)C[C@H](CN2CCN(C3CCNCC3)CC2Cc2ccccc2)O1 (stereo partly drawn) [Example 77, 4-[(2S,6R)-2-[[2-benzyl-4-(4-piperidyl)piperazin-1-yl]methyl]-6-methyl-morpholin-4-yl]pyrazolo[1,5-a]pyridine-7-carbonitrile]
